From patent US20110039721A1, “METHOD FOR PREDICTION ABOUT CARCINOGENICITY OF SUBSTANCE IN RODENT” (Chemicals Evaluation and Research Institute, priority 2007, published 2011)

Experiments:
[1] = test system: mRNA expressed from the genes (A) to (D) in rat liver; assay: Behavior of genes (mRNA expression level, oligo-DNA microarray) in rat liver after 28-day oral administration; type: in vivo
Outline: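 Groups of four male F344 SPF rats aged 5 weeks are gavaged once a day for 28 days with test chemical in solvent or with solvent alone at equal volume. Total RNA comes from liver taken on day 28. Fold change of 1.5 or 1/1.5 versus control, directionally consistent, defines significance.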

liver = conditions: in vivo; cited from earlier work
rodent = conditions: in vivo; cited from earlier work
[2] = (A), Unigene Rn.144554, defined direction +, rat liver, oral once daily 28 days
[3] = (A), Unigene Rn.167075, defined direction +, rat liver, oral once daily 28 days, significant = 1.5 times or more or 1/1.5 or less of control
[4] = (A), Unigene Rn.167075, defined direction −, rat liver, oral once daily 28 days
[5] = (A), Unigene Rn.5834, defined direction +, rat liver, oral once daily 28 days
[6] = (A), Unigene Rn.9836, defined direction +, rat liver, oral once daily 28 days
[7] = (B), Unigene Rn.1430, defined direction −, rat liver, oral once daily 28 days
[8] = (B), Unigene Rn.19329, defined direction +, rat liver, oral once daily 28 days
[9] = (B), Unigene Rn.21240, defined direction +, rat liver, oral once daily 28 days
[10] = (C), Unigene Rn.106184, defined direction +, rat liver, oral once daily 28 days
[11] = (C), Unigene Rn.108075, defined direction −, rat liver, oral once daily 28 days
[12] = (C), Unigene Rn.11766, defined direction +, rat liver, oral once daily 28 days
[13] = (C), Unigene Rn.118529, defined direction −, rat liver, oral once daily 28 days
[14] = (C), Unigene Rn.119024, defined direction −, rat liver, oral once daily 28 days
[15] = (C), Unigene Rn.120914, defined direction +, rat liver, oral once daily 28 days
[16] = (C), Unigene Rn.123063, defined direction −, rat liver, oral once daily 28 days
[17] = (C), Unigene Rn.143213, defined direction −, rat liver, oral once daily 28 days
[18] = (C), Unigene Rn.144946, defined direction −, rat liver, oral once daily 28 days
[19] = (C), Unigene Rn.14744, defined direction −, rat liver, oral once daily 28 days
[20] = (C), Unigene Rn.1647, defined direction −, rat liver, oral once daily 28 days
[21] = (C), Unigene Rn.164817, defined direction +, rat liver, oral once daily 28 days
[22] = (C), Unigene Rn.167685, defined direction −, rat liver, oral once daily 28 days
[23] = (C), Unigene Rn.185941, defined direction −, rat liver, oral once daily 28 days
[24] = (C), Unigene Rn.18728, defined direction −, rat liver, oral once daily 28 days
[25] = (C), Unigene Rn.201760, defined direction +, rat liver, oral once daily 28 days
[26] = (C), Unigene Rn.23969, defined direction +, rat liver, oral once daily 28 days
[27] = (C), Unigene Rn.24561, defined direction −, rat liver, oral once daily 28 days
[28] = (C), Unigene Rn.43232, defined direction −, rat liver, oral once daily 28 days
[29] = (C), Unigene Rn.4620, defined direction +, rat liver, oral once daily 28 days
[30] = (C), Unigene Rn.9757, defined direction +, rat liver, oral once daily 28 days
[31] = (C), Unigene Rn.9779, defined direction +, rat liver, oral once daily 28 days
[32] = (C), Unigene Rn.9862, defined direction −, rat liver, oral once daily 28 days
[33] = (D), Unigene Rn.9939, defined direction −, rat liver, oral once daily 28 days
[34] = gene group (A), Unigene No. Rn.167075
[35] = gene group (C), Unigene No. Rn.120914

CN(C)N=O [TS041, N-Nitrosodimethylamine]
+: Behavior of gene caused by administration of chemical substance, Gene No. 4846 [1, 2] | Behavior of gene caused by administration of chemical substance, Gene No. 4218 [1, 3] | Behavior of gene caused by administration of chemical substance, Gene No. 6182 [1, 5] | Behavior of gene caused by administration of chemical substance, Gene No. 5600 [1, 6] | Behavior of gene caused by administration of chemical substance, Gene No. 6742 [1, 31]
−: Behavior of gene caused by administration of chemical substance, Gene No. 2026 [1, 4] | Behavior of gene caused by administration of chemical substance, Gene No. 1494 [1, 7] | Behavior of gene caused by administration of chemical substance, Gene No. 2045 [1, 8] | Behavior of gene caused by administration of chemical substance, Gene No. 2203 [1, 9] | Behavior of gene caused by administration of chemical substance, Gene No. 533 [1, 10] | Behavior of gene caused by administration of chemical substance, Gene No. 725 [1, 11] | Behavior of gene caused by administration of chemical substance, Gene No. 1163 [1, 12] | Behavior of gene caused by administration of chemical substance, Gene No. 4973 [1, 13] | Behavior of gene caused by administration of chemical substance, Gene No. 4095 [1, 14] | Behavior of gene caused by administration of chemical substance, Gene No. 1334 [1, 15] | Behavior of gene caused by administration of chemical substance, Gene No. 6620 [1, 15] | Behavior of gene caused by administration of chemical substance, Gene No. 6303 [1, 16] | Behavior of gene caused by administration of chemical substance, Gene No. 5878 [1, 17] | Behavior of gene caused by administration of chemical substance, Gene No. 1131 [1, 18] | Behavior of gene caused by administration of chemical substance, Gene No. 1562 [1, 19] | Behavior of gene caused by administration of chemical substance, Gene No. 1741 [1, 20] | Behavior of gene caused by administration of chemical substance, Gene No. 893 [1, 21] | Behavior of gene caused by administration of chemical substance, Gene No. 6026 [1, 22] | Behavior of gene caused by administration of chemical substance, Gene No. 154 [1, 23] | Behavior of gene caused by administration of chemical substance, Gene No. 1993 [1, 24] | Behavior of gene caused by administration of chemical substance, Gene No. 813 [1, 25] | Behavior of gene caused by administration of chemical substance, Gene No. 2494 [1, 26] | Behavior of gene caused by administration of chemical substance, Gene No. 2546 [1, 27] | Behavior of gene caused by administration of chemical substance, Gene No. 3776 [1, 28] | Behavior of gene caused by administration of chemical substance, Gene No. 3929 [1, 29] | Behavior of gene caused by administration of chemical substance, Gene No. 1119 [1, 30] | Behavior of gene caused by administration of chemical substance, Gene No. 5634 [1, 32] | Behavior of gene caused by administration of chemical substance, Gene No. 5726 [1, 33]
Cr+: Liver carcinogenicity (liver)
C+: Carcinogenicity (rodent)

O=NN1CCCCC1 [TS042, N-Nitrosopiperidine]
Cr+: Liver carcinogenicity (liver)
C+: Carcinogenicity (rodent)
+: Behavior of gene caused by administration of chemical substance, Gene No. 4846 [1, 2] | Behavior of gene caused by administration of chemical substance, Gene No. 4218 [1, 3] | Behavior of gene caused by administration of chemical substance, Gene No. 2026 [1, 4] | Behavior of gene caused by administration of chemical substance, Gene No. 6182 [1, 5] | Behavior of gene caused by administration of chemical substance, Gene No. 5600 [1, 6] | Behavior of gene caused by administration of chemical substance, Gene No. 1494 [1, 7] | Behavior of gene caused by administration of chemical substance, Gene No. 533 [1, 10] | Behavior of gene caused by administration of chemical substance, Gene No. 6303 [1, 16] | Behavior of gene caused by administration of chemical substance, Gene No. 1131 [1, 18] | Behavior of gene caused by administration of chemical substance, Gene No. 1562 [1, 19] | Behavior of gene caused by administration of chemical substance, Gene No. 1993 [1, 24] | Behavior of gene caused by administration of chemical substance, Gene No. 813 [1, 25] | Behavior of gene caused by administration of chemical substance, Gene No. 5726 [1, 33]
−: Behavior of gene caused by administration of chemical substance, Gene No. 2045 [1, 8] | Behavior of gene caused by administration of chemical substance, Gene No. 2203 [1, 9] | Behavior of gene caused by administration of chemical substance, Gene No. 725 [1, 11] | Behavior of gene caused by administration of chemical substance, Gene No. 1163 [1, 12] | Behavior of gene caused by administration of chemical substance, Gene No. 4973 [1, 13] | Behavior of gene caused by administration of chemical substance, Gene No. 4095 [1, 14] | Behavior of gene caused by administration of chemical substance, Gene No. 1334 [1, 15] | Behavior of gene caused by administration of chemical substance, Gene No. 6620 [1, 15] | Behavior of gene caused by administration of chemical substance, Gene No. 5878 [1, 17] | Behavior of gene caused by administration of chemical substance, Gene No. 1741 [1, 20] | Behavior of gene caused by administration of chemical substance, Gene No. 893 [1, 21] | Behavior of gene caused by administration of chemical substance, Gene No. 6026 [1, 22] | Behavior of gene caused by administration of chemical substance, Gene No. 154 [1, 23] | Behavior of gene caused by administration of chemical substance, Gene No. 2494 [1, 26] | Behavior of gene caused by administration of chemical substance, Gene No. 2546 [1, 27] | Behavior of gene caused by administration of chemical substance, Gene No. 3776 [1, 28] | Behavior of gene caused by administration of chemical substance, Gene No. 3929 [1, 29] | Behavior of gene caused by administration of chemical substance, Gene No. 1119 [1, 30] | Behavior of gene caused by administration of chemical substance, Gene No. 6742 [1, 31] | Behavior of gene caused by administration of chemical substance, Gene No. 5634 [1, 32]

O=[N+]([O-])c1cccc2ccccc12 [TS083, 1-Nitronaphthalene]
+: Behavior of gene caused by administration of chemical substance, Gene No. 2026 [1, 34] | Behavior of gene caused by administration of chemical substance, Gene No. 1494 ([1]; gene group (B), Unigene No. Rn.1430) | Behavior of gene caused by administration of chemical substance, Gene No. 533 ([1]; gene group (C), Unigene No. Rn.106184) | Behavior of gene caused by administration of chemical substance, Gene No. 725 ([1]; gene group (C), Unigene No. Rn.108075) | Behavior of gene caused by administration of chemical substance, Gene No. 4973 ([1]; gene group (C), Unigene No. Rn.118529) | Behavior of gene caused by administration of chemical substance, Gene No. 4095 ([1]; gene group (C), Unigene No. Rn.119024) | Behavior of gene caused by administration of chemical substance, Gene No. 1334 [1, 35] | Behavior of gene caused by administration of chemical substance, Gene No. 6620 [1, 35] | Behavior of gene caused by administration of chemical substance, Gene No. 6303 ([1]; gene group (C), Unigene No. Rn.123063) | Behavior of gene caused by administration of chemical substance, Gene No. 1562 ([1]; gene group (C), Unigene No. Rn.14744) | Behavior of gene caused by administration of chemical substance, Gene No. 1741 ([1]; gene group (C), Unigene No. Rn.1647) | Behavior of gene caused by administration of chemical substance, Gene No. 893 ([1]; gene group (C), Unigene No. Rn.164817) | Behavior of gene caused by administration of chemical substance, Gene No. 6026 ([1]; gene group (C), Unigene No. Rn.167685) | Behavior of gene caused by administration of chemical substance, Gene No. 154 ([1]; gene group (C), Unigene No. Rn.185941) | Behavior of gene caused by administration of chemical substance, Gene No. 1993 ([1]; gene group (C), Unigene No. Rn.18728) | Behavior of gene caused by administration of chemical substance, Gene No. 813 ([1]; gene group (C), Unigene No. Rn.201760) | Behavior of gene caused by administration of chemical substance, Gene No. 2546 ([1]; gene group (C), Unigene No. Rn.24561) | Behavior of gene caused by administration of chemical substance, Gene No. 3776 ([1]; gene group (C), Unigene No. Rn.43232) | Behavior of gene caused by administration of chemical substance, Gene No. 3929 ([1]; gene group (C), Unigene No. Rn.4620) | Behavior of gene caused by administration of chemical substance, Gene No. 1119 ([1]; gene group (C), Unigene No. Rn.9757) | Behavior of gene caused by administration of chemical substance, Gene No. 6742 ([1]; gene group (C), Unigene No. Rn.9779)
Cr−: Liver carcinogenicity (liver)
C−: Carcinogenicity (rodent)
−: Behavior of gene caused by administration of chemical substance, Gene No. 4846 ([1]; gene group (A), Unigene No. Rn.144554) | Behavior of gene caused by administration of chemical substance, Gene No. 4218 [1, 34] | Behavior of gene caused by administration of chemical substance, Gene No. 6182 ([1]; gene group (A), Unigene No. Rn.5834) | Behavior of gene caused by administration of chemical substance, Gene No. 5600 ([1]; gene group (A), Unigene No. Rn.9836) | Behavior of gene caused by administration of chemical substance, Gene No. 2045 ([1]; gene group (B), Unigene No. Rn.19329) | Behavior of gene caused by administration of chemical substance, Gene No. 2203 ([1]; gene group (B), Unigene No. Rn.21240) | Behavior of gene caused by administration of chemical substance, Gene No. 1163 ([1]; gene group (C), Unigene No. Rn.11766) | Behavior of gene caused by administration of chemical substance, Gene No. 5878 ([1]; gene group (C), Unigene No. Rn.143213) | Behavior of gene caused by administration of chemical substance, Gene No. 1131 ([1]; gene group (C), Unigene No. Rn.144946) | Behavior of gene caused by administration of chemical substance, Gene No. 2494 ([1]; gene group (C), Unigene No. Rn.23969) | Behavior of gene caused by administration of chemical substance, Gene No. 5634 ([1]; gene group (C), Unigene No. Rn.9862) | Behavior of gene caused by administration of chemical substance, Gene No. 5726 ([1]; gene group (D), Unigene No. Rn.9939)
